The numbers were not newly measured in PMC5742115, “Pharmacophore Modeling and in Silico/in Vitro Screening for Human Cytochrome P450 11B1 and Cytochrome P450 11B2 Inhibitors” (Frontiers in Chemistry, 2017), which cites them from elsewhere.

The subject of one series is CYP11B2. The note with it: reported activity, supplementary Table 1, read-out: CYP11B2 IC50, cited from earlier work.
In the next series the test system is CYP11B1. The note with it: reported activity, supplementary Table 1, read-out: CYP11B1 IC50, cited from earlier work.
Setting [1] is: ref Pinto-Bazurco Mendieta et al., 2013.

Read-outs that look alike come from different tables or passages of the source.

The term IC50 denotes the point on the concentration scale where inhibition reaches its midpoint. For the molecule `Fc1ccc2c(c1)CC/C2=C/c1ccnc2ccccc12` [CHEMBL371275], the IC50 in the series with CYP11B2 (ref Ulmschneider et al., 2005a) is 0.014 µM. Turning to `Cc1c(C)c(C)c(Cn2ccnc2)c(C)c1C` [CHEMBL1651495], the IC50 with CYP11B2 (ref Hille et al., 2011b) was 0.023 µM; in the series with CYP11B1 (ref Hille et al., 2011b), 0.005 µM. For `Cc1nnc2n1-c1ccc(-c3cncc4ccccc34)cc1CC2` [CHEMBL2331706], the half-inhibitory concentration (IC50) was 0.005 µM with CYP11B2 (ref Blass, 2013a) and 0.407 µM in the series with CYP11B1 (ref Blass, 2013a). Regarding `COc1cccc(C(c2cc3c4c(c2)CCN4C(=O)CC3)n2ccnc2)c1` (centres unmarked) [CHEMBL2163645], the IC50 in the series on CYP11B2 (ref Yin et al., 2012) is 0.088 µM; in the series on CYP11B1 (ref Yin et al., 2012), 0.11 µM. In the case of `O=c1c2ccccc2oc2cccc(Cn3ccnc3)c12` [CHEMBL1083652], the IC50 in the series on CYP11B2 (ref Gobbi et al., 2013) was 0.114 µM; in the series with CYP11B1 (ref Gobbi et al., 2013) it was 0.0991 µM. For the molecule `C(=C1\CCc2ccccc21)/c1ccncc1` [CHEMBL179149], the concentration for half-maximal inhibition (IC50) is 0.018 µM in the series with CYP11B2 (ref Ulmschneider et al., 2005a) and 0.931 µM in the series on CYP11B1 (ref Ulmschneider et al., 2005a). As to `Oc1ccc2ccc(-c3cncnc3)c(Cl)c2c1` [CHEMBL2420686], the IC50 with CYP11B2 (setting [1]) is 0.022 µM; with CYP11B1 (setting [1]), 2.43 µM.

`O=c1cc(Cn2ccnc2)c2ccc(OCc3ccccc3)cc2o1` [CHEMBL225499]: the IC50 was 0.289 µM in the series with CYP11B2 (ref Stefanachi et al., 2011) and 0.072 µM in the series with CYP11B1 (ref Stefanachi et al., 2011). For the molecule `CC(C)Oc1ccc(Cn2ccnc2)c2c(=O)c3ccccc3oc12` [CHEMBL2333331], the IC50 is 0.0191 µM in the series on CYP11B2 (ref Gobbi et al., 2013) and 0.0925 µM in the series on CYP11B1 (ref Gobbi et al., 2013). In the case of `O=C1CCc2cc(-c3cccnc3)cc(Cl)c2N1` [CHEMBL457640], the IC50 is 0.0038 µM in the series on CYP11B2 (ref Lucas et al., 2008b) and 1.67 µM in the series with CYP11B1 (ref Lucas et al., 2008b). Turning to `CC(C)CCOc1ccc(Cn2ccnc2)c2c(=O)c3ccccc3oc12` [CHEMBL2333332], the IC50 in the series with CYP11B2 (ref Gobbi et al., 2013) was 0.0252 µM; in the series on CYP11B1 (ref Gobbi et al., 2013), 0.0244 µM. On to `Fc1ccc(Cn2ccnc2)cn1` [CHEMBL2331707], for which the IC50 was 1.74 µM in the series on CYP11B2 (ref Blass, 2013b) and 0.072 µM in the series on CYP11B1 (ref Blass, 2013b). Consider `c1ccc(-c2ccc(Cc3cncc4ccccc34)cn2)cc1` [CHEMBL2417635], for which the IC50 in the series with CYP11B2 (ref Emmerich et al., 2013) was 0.023 µM; in the series with CYP11B1 (ref Emmerich et al., 2013) it was 0.006 µM. In the case of `N#Cc1ccc(Cn2cncc2-c2ccccc2)cc1` [CHEMBL597578], the IC50 in the series on CYP11B2 (ref Roumen et al., 2010) was 0.0017 µM; in the series on CYP11B1 (ref Roumen et al., 2010), 0.028 µM. On to `Fc1ccc2c(c1)CC/C2=C\c1ccnc2ccccc12` [CHEMBL371509], for which the IC50 in the series on CYP11B2 (ref Ulmschneider et al., 2005a) is 0.02 µM. For `O=C1CCc2cc(C(c3ccncc3)c3ccc(Cl)cc3)cc3c2N1CC3` (centres unmarked) [CHEMBL2312961], the IC50 in the series with CYP11B2 (ref Yin et al., 2013) is 0.032 µM; in the series on CYP11B1 (ref Yin et al., 2013) it was 0.092 µM.

With `O=C1CCc2cc(-c3cncc(-c4cccc(F)c4)c3)cc3c2N1CC3` [CHEMBL1765221], the IC50 with CYP11B2 (ref Lucas et al., 2011) is 0.0014 µM; in the series with CYP11B1 (ref Lucas et al., 2011), 0.49 µM. For `COc1cncc(-c2ccc3c(c2)CCC(=O)C3)c1` [CHEMBL499007], the IC50 is 0.0018 µM with CYP11B2 (ref Lucas et al., 2008b) and 0.191 µM with CYP11B1 (ref Lucas et al., 2008b). In the case of `O=C1CCc2cc(-c3cccnc3)cc(Br)c2N1` [CHEMBL2165322], the half-inhibitory concentration (IC50) in the series with CYP11B2 (ref Hu et al., 2012) is 0.012 µM; with CYP11B1 (ref Hu et al., 2012) it was 1.42 µM. As for `Clc1ccc2c(c1)CC/C2=C/c1cccnc1` [CHEMBL193652], the IC50 with CYP11B2 (ref Ulmschneider et al., 2005a) was 0.073 µM; in the series with CYP11B1 (ref Ulmschneider et al., 2005a), 0.27 µM. Turning to `COc1ccc2ccc(-c3cccnc3)c(Cl)c2c1F` [CHEMBL2420677], the IC50 in the series with CYP11B2 (setting [1]) was 0.028 µM; with CYP11B1 (setting [1]), 2.94 µM. On to `c1ccc(-c2ccc(Cn3ccnc3)cc2)cc1` [CHEMBL1235146], for which the IC50 in the series with CYP11B2 (ref Hille et al., 2011b) is 0.637 µM; in the series on CYP11B1 (ref Hille et al., 2011b), 0.032 µM.

As for `Oc1ccc(-c2ccc(Cn3ccnc3)cn2)cc1F` [CHEMBL2011246], the IC50 is 0.237 µM in the series with CYP11B2 (ref Hille et al., 2011a) and 0.017 µM with CYP11B1 (ref Hille et al., 2011a). As for `COC(C)(C)c1cncc(-c2ccc3c(c2)CCc2nnc(C)n2-3)c1` [CHEMBL2331704], the IC50 is 0.005 µM with CYP11B2 (ref Blass, 2013a) and 0.108 µM with CYP11B1 (ref Blass, 2013a). For the molecule `COc1ccc2c(c1)CCC/C2=C/c1ccncc1` [CHEMBL193496], the IC50 with CYP11B2 (ref Ulmschneider et al., 2005a) was 0.056 µM. On to `C(=C(c1ccccc1)c1ccccc1)c1cccnc1` [CHEMBL370317], for which, in the series with CYP11B2 (ref Ulmschneider et al., 2005a), the IC50 was 0.009 µM. As to `c1cncc(-c2ccc3cccc4c3c2CC4)c1` [CHEMBL372747], the IC50 in the series with CYP11B2 (ref Ulmschneider et al., 2006) is 0.01 µM.

As to `Brc1ccc2c(c1)CC/C2=C/c1c[nH]cn1` [CHEMBL174579], in the series with CYP11B2 (ref Ulmschneider et al., 2005b), the IC50 is 0.0103 µM.

`CC1C/C(=C/c2cccnc2)c2ccccc21` (centres unmarked) [CHEMBL373074]: in the series on CYP11B2 (ref Ulmschneider et al., 2005a), the IC50 was 0.041 µM.

On to `COc1ccc2c(c1)CC/C2=C/c1cncs1` [CHEMBL195354], for which the IC50 with CYP11B2 (ref Ulmschneider et al., 2005a) was 0.005 µM. In the case of `Clc1ccc2c(c1)/C(=C/c1cnc[nH]1)CCC2` [CHEMBL175144], in the series on CYP11B2 (ref Ulmschneider et al., 2005b), the IC50 is 0.0473 µM.

With `COc1ccc2c(c1)CC/C2=C/c1ccncc1` [CHEMBL175609], the IC50 in the series on CYP11B2 (ref Ulmschneider et al., 2005a) was 0.055 µM. For the molecule `COc1ccc2c(c1)C=C(c1cccnc1)CC2` [CHEMBL206273], the IC50 in the series on CYP11B2 (ref Voets et al., 2006) is 0.005 µM. Consider `C/C(=C1/CCc2cc(F)ccc21)c1cccnc1` [CHEMBL194047], for which the IC50 in the series with CYP11B1 (ref Ulmschneider et al., 2005b) was 0.096 µM.

In the case of `COc1ccc(Cn2cncc2CCCO)cc1` [CHEMBL597577], in the series with CYP11B2 (ref Roumen et al., 2010), the IC50 was 0.059 µM. As to `C(=C1/CC(c2ccccc2)c2ccccc21)/c1cccnc1` (centres unmarked) [CHEMBL193555], the IC50 in the series on CYP11B2 (ref Ulmschneider et al., 2005a) was 0.003 µM. In the case of `Fc1ccc2c(c1)CC/C2=C/c1c[nH]cn1` [CHEMBL179247], the IC50 with CYP11B1 (ref Ulmschneider et al., 2005b) is 0.0112 µM. Take `C(=C1c2ccccc2-c2ccccc21)c1cccnc1` [CHEMBL194928]: the IC50 in the series with CYP11B2 (ref Ulmschneider et al., 2005a) is 0.006 µM.

Turning to `COc1ccc2c(c1)/C(=C\c1ccncc1)CC2` [CHEMBL370281], in the series on CYP11B2 (ref Ulmschneider et al., 2005a), the IC50 is 0.026 µM. For the molecule `Fc1ccc2c(c1)CC/C2=C\c1cccc2ncccc12` [CHEMBL195580], the IC50 in the series with CYP11B2 (ref Ulmschneider et al., 2005a) was 0.014 µM. As for `CCOC(=O)c1cncn1[C@H](C)c1ccccc1` [CHEMBL681, Etomidate], the IC50 with CYP11B2 (ref Dorr et al., 1984) is 0.0001 µM; in the series on CYP11B2 (ref Roumen et al., 2010), 0.0017 µM. Regarding `COc1ccc2c(c1)CCC/C2=C\c1ccncc1` [CHEMBL175979], the IC50 in the series with CYP11B2 (ref Ulmschneider et al., 2005a) is 0.022 µM. Regarding `Cc1ccc2c(c1)/C(=C\c1ccncc1)CC2` [CHEMBL192077], the IC50 with CYP11B2 (ref Ulmschneider et al., 2005a) was 0.008 µM. In the case of `C(=C1/CCc2ccccc21)/c1ccncc1` [CHEMBL175962], the IC50 with CYP11B2 (ref Ulmschneider et al., 2005a) was 0.008 µM. As for `C(=C1c2ccccc2-c2ccccc21)c1ccncc1` [CHEMBL383145], the IC50 in the series with CYP11B2 (ref Ulmschneider et al., 2005a) was 0.005 µM. Consider `Fc1ccc2c(c1)CC/C2=C/c1cccc2ncccc12` [CHEMBL195653], for which the IC50 in the series with CYP11B2 (ref Ulmschneider et al., 2005a) is 0.031 µM. For the molecule `Cc1ccc2c(c1)/C(=C/c1ccncc1)CC2` [CHEMBL371742], the IC50 in the series on CYP11B2 (ref Ulmschneider et al., 2005a) was 0.004 µM. As to `c1ccc2c(c1)ncn2CC12CC3CC(CC(C3)C1)C2` [CHEMBL1651506], the IC50 in the series with CYP11B1 (ref Hille et al., 2011b) was 0.075 µM.

Turning to `COc1ccc2c(c1)CC/C2=C\c1ccncc1` [CHEMBL359942], the IC50 in the series with CYP11B2 (ref Ulmschneider et al., 2005a) is 0.059 µM. Consider `c1cncc(-c2ccc3c4c(cccc24)CC3)c1` [CHEMBL199683], for which the IC50 with CYP11B2 (ref Ulmschneider et al., 2006) was 0.014 µM.

As for `Oc1ccc2cc(-c3cccnc3)ccc2c1` [CHEMBL195571], the IC50 in the series with CYP11B2 (ref Voets et al., 2005) is 0.023 µM. Take `COc1ccc2c(c1)/C(=C/c1ccncc1)CC2` [CHEMBL365314]: the IC50 in the series with CYP11B2 (ref Ulmschneider et al., 2005a) is 0.003 µM.

With `COc1cc2c(cc1OC)/C(=C/c1ccncc1)CCC2` [CHEMBL193858], the IC50 in the series with CYP11B2 (ref Ulmschneider et al., 2005a) was 0.011 µM. On to `C(=C(c1ccccc1)c1ccccc1)c1ccncc1` [CHEMBL381194], for which, in the series with CYP11B2 (ref Ulmschneider et al., 2005a), the IC50 was 0.022 µM. For the molecule `CC(C)C(c1ccc(-c2ccccc2)nc1)n1ccnc1` (centres unmarked) [CHEMBL2417622], in the series with CYP11B2 (ref Emmerich et al., 2013), the IC50 is 0.028 µM. For `COc1ccc2ccc(-c3cccnc3)cc2c1` [CHEMBL193863], the IC50 with CYP11B2 (setting [1]) was 0.068 µM. Take `COc1ccc2c(c1)CC/C2=C\c1cncs1` [CHEMBL192155]: in the series with CYP11B2 (ref Ulmschneider et al., 2005a), the IC50 was 0.017 µM.
